# Assay results as given in patent US12577217B2, “15-PGDH inhibitor” (KYORIN Pharmaceutical Co., Ltd., priority 2019, dated 2026).
# Target: T1, recombinant human 15-PGDH (Homo sapiens, UniProt P15428)
# T1 construct: purchased R&D Systems
# T1 sequence (P15428 1-266): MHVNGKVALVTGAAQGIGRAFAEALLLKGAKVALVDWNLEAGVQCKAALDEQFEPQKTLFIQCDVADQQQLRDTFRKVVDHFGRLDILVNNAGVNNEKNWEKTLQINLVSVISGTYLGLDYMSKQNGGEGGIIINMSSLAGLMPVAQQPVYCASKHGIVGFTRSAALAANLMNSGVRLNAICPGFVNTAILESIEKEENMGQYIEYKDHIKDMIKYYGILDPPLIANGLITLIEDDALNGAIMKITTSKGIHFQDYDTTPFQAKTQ
# Test: 15-PGDH enzyme inhibition test
# Format: biochemical
# Settings: 4 nM recombinant human 15-PGDH, 30 μM PGE2, 1 mM NAD+, 60 minutes after starting the reaction; read-out: IC50 Value
# In short: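 4 nM recombinant human enzyme pre-incubated with compound 12 min at room temperature in 50 mM Tris-HCl pH 8.0 with 0.01% Tween 20 and 0.01% bovine gamma globulin. Reaction started with 30 μM PGE2 and 1 mM NAD+, read after 60 min by fluorescence (ex 340/em 440 nm). IC50 from concentration-response curve.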
row,SMILES,IC50 [nM]
1,Cn1nc2cc(N3CCOc4cc(C(=O)N5C[C@H]6CCC[C@H]6C5)cnc43)ccn2c1=O [Example 8-98],< 10
2,CN1Cc2cc(N3CCOc4cc([S+]([O-])C5CCCCC5)cnc43)ccc2C1=O (centres unmarked) [Example 7-9],< 10
3,Cn1nc2cc(N3CCOc4c3ccc(C(=O)N3CCCCC3)c4Cl)ccn2c1=O [Example 1-265],< 10
4,CCn1nc2cc(N3CCCc4cc(C(=O)N5CCCCCC5)cnc43)ccn2c1=O [Example 8-149],< 10
5,O=C(c1cnc2c(c1)CCCN2c1ccc2c(c1)CN(CC1COC1)C2=O)N1CCC(F)(F)CC1 [Example 1-177],< 10
6,COC(=O)C(C)(C)c1ccc(N2CCOc3cc(C(=O)N4CCCCC4)cnc32)cc1 [Example 1-247],> 100
7,COc1noc2cc(N3CCOc4cc(C(=O)N5CCCCC5)cnc43)ccc12 [Example 1-20],< 10
8,CCN1Cc2cc(N3CCCc4cc(C(=O)N5CCC(F)(F)CC5)cnc43)ccc2C1=O [Example 1-126],< 10
9,CN1Cc2cc(N3CCOc4cc(C(=O)N5CCC5)cnc43)ccc2C1=O [Example 8-184],< 10
10,Cn1nc2cc(N3CCOc4cc(C(=O)N5CCC6(CC5)CC6)cnc43)ccn2c1=O [Example 8-45],< 10
11,O=C(O)c1ccc(N2CCOc3cc(C(=O)N4CCCCC4)c(Cl)cc32)cc1 [Example 2-3],< 10
12,CN(CC(C)(C)O)C(=O)c1cnc2c(c1)OCCN2c1ccn2c(=O)n(C)nc2c1 [Example 8-182],10 to 100
13,COCCN1Cc2cc(N3CCCc4cc(C(=O)N5CCC(F)(F)CC5)cnc43)ccc2C1=O [Example 1-82],< 10
14,O=C(c1cnc2c(c1)OCCN2c1ccc(F)cc1)N1CCCCC1 [Example 1-236],> 100
15,O=C(O)c1ccc(N2CCOc3cc(C(=O)N4CCC(F)(F)CC4)ccc32)cc1 [Example 2-35],< 10
16,"Cn1nc2cc(N3CCN(c4ccccc4)c4cc(C(=O)N5CCC(F)(F)CC5)cnc43)ccn2c1=O [Example 30-1, 7-(7-(4,4-Difluoropiperidine-1-carbonyl)-1-phenyl-2,3-dihydropyrido[2,3-b]pyrazin-4(1H)-yl)-2-methyl-[1,2,4]triazolo[4,3-a]pyridin-3 (2H)-one]",10 to 100
17,O=C(c1ccc2c(c1)OCCN2c1ccn2c(=O)[nH]nc2c1)N1CCC(F)(F)CC1 [Example 1-148],< 10
18,Cn1cnc2cc(N3CCOc4cc(C(=O)N5CCCCC5)cnc43)ccc2c1=O [Example 1-163],< 10
19,COCn1nc2cc(N3CCCc4cc(C(=O)N5CCC[C@@H](C(F)F)C5)cnc43)ccn2c1=O [Example 8-119],< 10
20,CC(=O)N1CCN(C(=O)c2cnc3c(c2)OCCN3c2ccc3c(c2)CN(C)C3=O)CC1 [Example 8-190],> 100
21,COCn1nc2cc(N3CCCc4cc(C(=O)N5CCCCC5)cnc43)ccn2c1=O [Example 1-53],< 10
22,CCn1nc2cc(N3CCCc4cc(C(=O)N5CCCCCCC5)cnc43)ccn2c1=O [Example 8-150],< 10
23,CNC(=O)c1ccc(N2CCOc3cc(C(=O)N4CCCCC4)cnc32)cc1F [Example 6-5],< 10

row,SMILES,IC50 [nM]
1,CC(C)(N)c1ccc(N2CCOc3cc(C(=O)N4CCCCC4)cnc32)cc1 [Example 1-246],> 100
2,CS(=O)(=O)CCc1ccc(N2CCOc3cc(C(=O)N4CCCCC4)ccc32)cc1 [Example 1-161],< 10
3,Cn1nc2cc(N3CCOc4cc(C(=O)NCCCCO)cnc43)ccn2c1=O [Example 8-176],10 to 100
4,COC(=O)c1cccc(N2CCOc3cc(C(=O)N4CCCCC4)cnc32)c1 [Example 1-262],< 10
5,CCN1Cc2cc(N3CCCc4cc(C(=O)N5CCN(C)CC5)cnc43)ccc2C1=O [Example 8-73],< 10
6,O=C(c1cnc2c(c1)OCCN2c1ccn2c(=O)n(-c3ccccn3)nc2c1)N1CCCCC1 [Example 1-35],< 10
7,CCOCCn1nc2cc(N3CCOc4cc(C(=O)N5CCCCC5)cnc43)ccn2c1=O [Example 1-269],< 10
8,CCN1Cc2cc(N3CCCc4cc(C(=O)N5CCCCCC5)cnc43)ccc2C1=O [Example 8-70],< 10
9,Cc1nccc(N2CCOc3cc(C(=O)N4CCC(F)(F)CC4)ccc32)n1 [Example 24-3],10 to 100
10,Cn1nc2cc(N3CCOc4cc(C(=O)N5CCCCCCC5)sc43)ccn2c1=O [Example 8-224],10 to 100
11,Cn1nc2cc(N3CCOc4cc(C(=O)NCCCO)cnc43)ccn2c1=O [Example 8-174],10 to 100
12,O=C(c1cnc2c(c1)OCCN2c1ccc(-c2nnn[nH]2)cc1)N1CCCCC1 [Example 14-10],< 10
13,O=C(O)c1ccc(N2CCCc3cc(C(=O)N4CCCCC4)cnc32)cc1 [Example 2-34],< 10
14,CN1Cc2cc(N3CCOc4cc(C(=O)N5CCC(F)(F)CC5)cnc43)ccc2C1=O [Example 1-127],< 10
15,COC(=O)c1cc2ccc(N3CCOc4cc(C(=O)N5CCCCC5)cnc43)cc2n1C [Example 1-92],< 10
16,"CC(C)(O)Cn1nc2cc(N3CCOc4cc(C(=O)N5CCCCC5)cnc43)ccn2c1=O [Example 15-1, 2-(2-Hydroxy-2-methylpropyl)-7-(7-(piperidine-1-carbonyl)-2,3-dihydro-4H-pyrido[3,2-b][1,4]oxazin-4-yl)-[1,2,4]triazolo[4,3-a]pyridin-3(2H)-one]",< 10
17,O=C(c1cnc2c(c1)OCCN2c1ccccc1)N1CCCCC1 [Example 1-232],10 to 100
18,O=C(O)c1ccc(N2CCOc3cc(C(=O)N4CCCC(F)(F)C4)cnc32)cc1 [Example 4-6],< 10
19,O=C(c1cnc2c(c1)OCCN2c1ccc2cccnc2c1)N1CCCCC1 [Example 1-257],< 10
20,N#Cc1ccc(N2CCOc3cc(C(=O)N4CCC(F)(F)CC4)ccc32)cc1 [Example 1-17],< 10
21,COCn1nc2cc(N3CCOc4cc(C(=O)N5CCC(F)(F)CC5)ccc43)ccn2c1=O [Example 1-154],< 10
22,CCCCN1Cc2cc(N3CCCc4cc(C(=O)N5CCCCC5)cnc43)ccc2C1=O [Example 1-197],< 10

# Continued, values first:
row,IC50 [nM],SMILES
1,< 10,O=C(c1cnc2c(c1)OCCN2c1ccn2c(=O)n(CC(F)(F)F)nc2c1)N1CCCCC1 [Example 27-3]
2,< 10,Cn1nc2cc(N3CCc4cc(C(=O)N5CCCCC5)cnc43)ccn2c1=O [Example 1-109]
3,< 10,Cn1nc2cc(N3CCCOc4cc(C(=O)N5CCC(F)(F)CC5)cnc43)ccn2c1=O [Example 8-64]
4,> 100,CN(CCCCO)C(=O)c1cnc2c(c1)OCCN2c1ccn2c(=O)n(C)nc2c1 [Example 8-177]
5,10 to 100,Cn1nc2cc(N3CCOc4cc(C(=O)N5CCC(F)(F)CC5)sc43)ccn2c1=O [Example 8-223]
6,< 10,O=C(O)c1ccc(N2CCOc3cc(C(=O)N4CCCCC4)sc32)cc1 [Example 4-12]
7,< 10,Cn1nc2cc(N3CCCc4cc(C(=O)N5CCCCCC5)cnc43)ccn2c1=O [Example 8-124]
8,< 10,CCOCCN1Cc2cc(N3CCCc4cc(C(=O)N5CCCCC5)cnc43)ccc2C1=O [Example 1-63]
9,< 10,C[C@H]1CCCN(C(=O)c2cnc3c(c2)OCCN3c2ccn3c(=O)n(C)nc3c2)C1 [Example 8-34]
10,10 to 100,CNC(=O)c1ccc(N2CCCc3cc(C(=O)N4CCCCC4)cnc32)cc1C [Example 1-207]
11,< 10,CCN1CCN(c2ccn3c(=O)n(C)nc3c2)c2ncc(C(=O)N3CCC(F)(F)CC3)cc21 [Example 29-5]
12,10 to 100,CCOCCN1Cc2cc(N3CCCc4cc(C(=O)N5CCCCC5)cnc43)ncc2C1=O [Example 1-73]
13,< 10,"CC1c2cc(N3CCOc4cc(C(=O)N5CCCCC5)cnc43)ccc2C(=O)N1C (single isomer, unassigned) [16-1 Isomer A]"
14,< 10,O=C(O)c1ccc(N2CCOc3cc(C(=O)N4CCCCC4)cnc32)cc1 [Example 4-2]
15,< 10,"Cn1nc2cc(N3CCOc4cc(C(=O)N5C=CCCC5)cnc43)ccn2c1=O [Example 37-1, 2-Methyl-7-(7-(1,2,3,4-tetrahydropyridine-1-carbonyl)-2,3-dihydro-4H-pyrido[3,2-b][1,4]oxazin-4-yl)-[1,2,4]triazolo[4,3-a]pyridin-3(2H)-one]"
16,< 10,Cn1ncc2cc(N3CCCc4cc(C(=O)N5CCCCC5)cnc43)ccc2c1=O [Example 1-188]
17,10 to 100,Cn1nc2cc(N3CCOc4cc(C(=O)N5CCCCC5)cnc43)cc(-n3ccnc3)n2c1=O [Example 11-4]
18,< 10,NC(=O)c1ccc(N2CCOc3cc(C(=O)N4CCCCC4)cnc32)cc1F [Example 6-4]
19,< 10,Cn1nc2cc(N3CCCc4cc(C(=O)N5CCC[C@@H](F)C5)cnc43)ccn2c1=O [Example 8-137]
20,10 to 100,COCCN1Cc2cc(N3CCCc4cc(C(=O)N5CCC(F)(F)CC5)cnc43)ncc2C1=O [Example 1-86]
21,< 10,CNC(=O)c1ccc(N2CCCc3cc(C(=O)N4CCC(F)(F)CC4)cnc32)cc1F [Example 1-175]
22,> 100,COC(=O)c1ccccc1N1CCOc2cc(C(=O)N3CCCCC3)cnc21 [Example 1-263]
23,< 10,Cn1nc2cc(N3CCCOc4cc(C(=O)N5CCC[C@H](F)C5)cnc43)ccn2c1=O [Example 8-63]
24,< 10,O=C(c1cnc2c(c1)CCCN2c1ccn2c(=O)[nH]nc2c1)N1CCC[C@H](CF)C1 [Example 1-145]
25,10 to 100,CCn1nc2cc(N3CCCc4cc(C(=O)N5CCOCC5)cnc43)ccn2c1=O [Example 8-151]
26,10 to 100,CS(=O)(=O)c1ccc(N2CCOc3cc(C(=O)N4CCCCC4)cnc32)cc1 [Example 1-240]
